Where two headings read alike, the source gives them in different places.
Target: T1, IRAK4 protein (Homo sapiens, UniProt Q9NWZ3)
T1 sequence (Q9NWZ3 1-460): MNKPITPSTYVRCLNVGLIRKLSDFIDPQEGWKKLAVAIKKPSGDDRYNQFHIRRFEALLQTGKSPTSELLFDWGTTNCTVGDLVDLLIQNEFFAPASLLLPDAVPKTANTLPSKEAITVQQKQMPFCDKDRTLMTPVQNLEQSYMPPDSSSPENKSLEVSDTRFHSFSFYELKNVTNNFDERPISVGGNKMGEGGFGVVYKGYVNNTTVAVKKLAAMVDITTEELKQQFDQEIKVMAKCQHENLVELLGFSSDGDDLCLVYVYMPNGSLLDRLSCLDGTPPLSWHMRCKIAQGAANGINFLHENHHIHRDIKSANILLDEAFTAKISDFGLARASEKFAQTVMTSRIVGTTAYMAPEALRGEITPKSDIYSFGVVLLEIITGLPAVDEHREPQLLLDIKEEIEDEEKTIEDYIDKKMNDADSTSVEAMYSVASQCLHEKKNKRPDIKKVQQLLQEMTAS
Assay: IRAK4 Degradation Assay in THP-1 Cells (Western Blot)
Type: cell-based
Set-up: endogenous in cells; host or cells: THP-1 cells
Conditions: 24 hours, 0.0128 to 1000 nM, IRAK4 protein level by Western Blot; for Dmax: read-out: Dmax%
Method: In a 6-well cell culture plate, an appropriate number of THP-1 cells were seeded. The plate was placed in a 5% CO2 incubator at 37°C for overnight culture. Then, the test compound's dimethyl sulfoxide solution was added, with the final concentration ranging from 0.0128 to 1000 nM. After continuous culture for 24 hours, the culture medium was removed, and the cells were collected in a 1.5 mL centrifuge tube. After adding lysis buffer and grinding thoroughly, the mixture was placed on ice for 30 minutes. It was then centrifuged at 15,000 xg and 4°C for 20 minutes. The supernatant was taken, and the level of IRAK4 protein was detected by Western Blot.

SMILES	Dmax (THP-1, THP-1 cells) [%]	DC50 (THP-1 cells, read-out: DC50) [nM]	Dmax% (THP-1 cells) [%]	Dmax (THP-1 cells) [%]	DC50 (THP-1 cells) [nM]
Cn1c(=O)n(C2CCC(=O)NC2=O)c2cccc(C#CCO[C@H]3CC[C@H](C(=O)N4CCC5(CC4)Cc4cc(NC(=O)c6cnn7cccnc67)c(N6CCC(CO)CC6)cc4O5)CC3)c21 (relative stereo) [Compound 74]	86.2	2.78	–	–	–
O=C1CCC(N2Cc3cc(N4CCC(CN5CCC6(CC5)Cc5cc(NC(=O)c7cnn8cccnc78)c(N7CCC(CO)CC7)cc5O6)CC4)ccc3C2=O)C(=O)N1 (single isomer, unassigned) [Example 84]	88.3	1.13	–	–	–
O=C1CCC(N2Cc3cc(N4CCC(CN5CCC6(CC5)Cc5cc(NC(=O)c7cnn8cccnc78)c(N7CCC(CO)CC7)cc5O6)CC4)ccc3C2=O)C(=O)N1 (single isomer, unassigned) [Example 85]	–	0.66	89.8	–	–
Cn1c(=O)n(C2CCC(=O)NC2=O)c2cccc(CN3CCC(CCN4CCC5(CC4)Cc4cc(NC(=O)c6cnn7cccnc67)c(N6CCC(CO)CC6)cc4O5)CC3)c21 (stereo not shown) [Compound 1]	91.9	1.09	–	–	–
Cn1c(=O)n(C2CCC(=O)NC2=O)c2cccc(CN3CCC(CCN4CCC5(CC4)Cc4cc(NC(=O)c6coc7cccnc67)c(N6CCC(CO)CC6)cc4O5)CC3)c21 (stereo not shown) [Compound 3]	–	4.14	–	93.5	–
Cn1c(=O)n(C2CCC(=O)NC2=O)c2cccc(CN3CCC(CCN4CCC5(CC4)Cc4cc(NC(=O)c6cnn7cccnc67)c(N6CCN(CC(F)F)CC6)cc4O5)CC3)c21 (stereo not shown) [Compound 6]	–	9.65	–	85.1	–
Cn1c(=O)n(C2CCC(=O)NC2=O)c2cccc(CN3CCC(CCN4CCC5(CC4)Oc4cc(NC(=O)c6coc7cccnc67)c(N6CCC(CO)CC6)cc4O5)CC3)c21 (stereo not shown) [Compound 14]	–	3.4	–	89.2	–
Cn1c(=O)n(C2CCC(=O)NC2=O)c2cccc(C#CCOC3CCN(CCN4CCC5(CC4)Cc4cc(NC(=O)c6cnn7cccnc67)c(N6CCC(CO)CC6)cc4O5)CC3)c21 (stereo not shown) [Compound 19]	87.9	2.18	–	–	–
Cn1c(=O)n(C2CCC(=O)NC2=O)c2cccc(C#CCOC3CCN(CCN4CCC5(CC4)Cc4cc(NC(=O)c6coc7cccnc67)c(N6CCC(CO)CC6)cc4O5)CC3)c21 (stereo not shown) [Compound 21]	–	3.58	–	91.6	–
Cn1c(=O)n(C2CCC(=O)NC2=O)c2cccc(C#CCOC3CCN(CCN4CCC5(Cc6cc(NC(=O)c7coc8cccnc78)c(N7CCC(CO)CC7)cc6O5)C4)CC3)c21 (stereo not shown) [Compound 23]	–	3.08	–	88.3	–
Cn1c(=O)n(C2CCC(=O)NC2=O)c2cccc(C#CCOC3CCN(CCN4CCC5(CC4)Oc4cc(NC(=O)c6cnn7cccnc67)c(N6CCC(CO)CC6)cc4O5)CC3)c21 (stereo not shown) [Compound 28]	–	3.38	–	86.5	–
Cn1c(=O)n(C2CCC(=O)NC2=O)c2cccc(C#CCOC3CCN(CCN4CCC5(CC4)Oc4cc(NC(=O)c6coc7cccnc67)c(N6CCC(CO)CC6)cc4O5)CC3)c21 (stereo not shown) [Compound 29]	–	7.12	–	92.8	–
Cn1c(=O)n(C2CCC(=O)NC2=O)c2cccc(CN3CCC4(CC3)CN(CCN3CCC5(CC3)Cc3cc(NC(=O)c6cnn7cccnc67)c(N6CCC(CO)CC6)cc3O5)C4)c21 (stereo not shown) [Compound 32]	–	–	–	95.4	1.53
Cn1c(=O)n(C2CCC(=O)NC2=O)c2cccc(CN3CC4(CCN(CCN5CCC6(CC5)Cc5cc(NC(=O)c7cnn8cccnc78)c(N7CCC(CO)CC7)cc5O6)CC4)C3)c21 (stereo not shown) [Compound 33]	–	–	–	94.8	1.66
COCC1CCN(c2cc3c(cc2NC(=O)c2cnn4cccnc24)CC2(CCN(C[C@H]4CC[C@H](OCC#Cc5cccc6c5n(C)c(=O)n6C5CCC(=O)NC5=O)CC4)CC2)O3)CC1 (stereo partly shown) [Compound 44]	–	6.38	–	84.9	–
Cn1c(=O)n(C2CCC(=O)NC2=O)c2cccc(C#CCO[C@H]3CC[C@H](CN4CCC5(Cc6cc(NC(=O)c7cnn8cccnc78)c(N7CCC(CO)CC7)cc6O5)C4)CC3)c21 (stereo partly shown) [Compound 51]	–	2	–	83.9	–

SMILES	Dmax (THP-1, THP-1 cells) [%]	DC50 (THP-1 cells, read-out: DC50) [nM]	Dmax% (THP-1 cells) [%]	Dmax (THP-1 cells) [%]	DC50 (THP-1 cells) [nM]
Cn1c(=O)n(C2CCC(=O)NC2=O)c2cccc(C#CCO[C@H]3CC[C@H](CN4CCC5(CC4)Cc4cc(NC(=O)c6coc7cccnc67)c(N6CCC(CO)CC6)cc4C5)CC3)c21 (stereo partly shown) [Compound 52]	–	5.25	–	89.2	–
Cn1c(=O)n(C2CCC(=O)NC2=O)c2cccc(C#CCO[C@H]3CC[C@H](CN4CCC5(CC4)Cc4cc(NC(=O)c6cnn7cccnc67)c(N6CCC(CO)CC6)cc4C5)CC3)c21 (stereo partly shown) [Compound 53]	–	2.77	–	77.5	–
Cn1c(=O)n(C2CCC(=O)NC2=O)c2cccc(C#CCO[C@H]3CC[C@H](CN4CCC5(Cc6cc(NC(=O)c7coc8cccnc78)c(N7CCC(CO)CC7)cc6O5)C4)CC3)c21 (stereo partly shown) [Compound 54]	–	3.5	–	91.1	–
Cn1c(=O)n(C2CCC(=O)NC2=O)c2cccc(C#CCO[C@H]3CC[C@@H](CN4CCC5(CC4)Cc4cc(NC(=O)c6coc7cccnc67)c(N6CCC(CO)CC6)cc4O5)CC3)c21 (stereo partly shown) [Compound 56]	–	7.79	–	90.4	–
Cn1c(=O)n(C2CCC(=O)NC2=O)c2cccc(C#CCO[C@H]3CC[C@@H](CN4CCC5(Cc6cc(NC(=O)c7cnn8cccnc78)c(N7CCC(CO)CC7)cc6O5)C4)CC3)c21 (stereo partly shown) [Compound 58]	–	3.69	–	85.6	–
Cn1c(=O)n(C2CCC(=O)NC2=O)c2cccc(C#CCOCCNCCN3CCC4(CC3)Cc3cc(NC(=O)c5cnn6cccnc56)c(N5CCC(CO)CC5)cc3O4)c21 (stereo not shown) [Compound 59]	88.6	1.17	–	–	–
Cn1nc(N2CCC(=O)NC2=O)c2cccc(CN3CCC(CCN4CCC5(CC4)Cc4cc(NC(=O)c6coc7cccnc67)c(N6CCC(CO)CC6)cc4O5)CC3)c21 [Compound 62]	82.8	7.34	–	–	–
O=C1CCC(N2Cc3c(CN4CCC(CCN5CCC6(CC5)Cc5cc(NC(=O)c7cnn8cccnc78)c(N7CCC(CO)CC7)cc5O6)CC4)cccc3C2=O)C(=O)N1 (stereo not shown) [Compound 64]	89.3	1.3	–	–	–
O=C1CCC(N2C(=O)c3cc(F)c(N4CCC(CCN5CCC6(CC5)Cc5cc(NC(=O)c7cnn8cccnc78)c(N7CCC(CO)CC7)cc5O6)CC4)cc3C2=O)C(=O)N1 (stereo not shown) [Compound 72]	92.6	7.7	–	–	–
COC1(CN2CCC3(CC2)Cc2cc(NC(=O)c4cnn5cccnc45)c(N4CCC(CO)CC4)cc2O3)CCN(c2cccc3c2n(C)c(=O)n3C2CCC(=O)NC2=O)CC1 (stereo not shown) [Example 79]	89.5	1.55	–	–	–
Cn1c(=O)n(C2CCC(=O)NC2=O)c2cccc(C3CC(CN4CCC5(CC4)Cc4cc(NC(=O)c6cnn7cccnc67)c(N6CCC(CO)CC6)cc4O5)C3)c21 (stereo not shown) [Example 80]	83.4	0.64	–	–	–
Cn1c(=O)n(C2CCC(=O)NC2=O)c2cccc(N3CCC(O)(CC(=O)N4CCC5(CC4)Cc4cc(NC(=O)c6cnn7cccnc67)c(N6CCC(CO)CC6)cc4O5)CC3)c21 (stereo not shown) [Example 81]	90.2	1.02	–	–	–
O=C1CCC(N2C(=O)c3ccc(N4CCC(CN5CCC6(CC5)Cc5cc(NC(=O)c7cnn8cccnc78)c(N7CCC(CO)CC7)cc5O6)CC4)cc3C2=O)C(=O)N1 (stereo not shown) [Example 82]	85.6	3.44	–	–	–
Cn1c(=O)n(C2CCC(=O)NC2=O)c2cccc(C#CCO[C@H]3CC[C@H](CN4CCC5(CC4)Cc4cc(NC(=O)c6cnn7cc(Cl)cnc67)c(N6CCC(O)CC6)cc4O5)CC3)c21 (stereo partly shown) [Example 86]	–	2.98	–	86.2	–
Cn1c(=O)n(C2CCC(=O)NC2=O)c2cccc(C#CCO[C@H]3CC[C@H](CN4CCC5(CC4)Cc4cc(NC(=O)c6cnn7cc(C#N)cnc67)c(N6CCC(CO)CC6)cc4O5)CC3)c21 (stereo partly shown) [Example 87]	–	4.06	–	90	–
Cc1cc(-c2nc(C(=O)Nc3cc4c(cc3N3CCC(O)CC3)OC3(CCN(C[C@H]5CC[C@H](OCC#Cc6cccc7c6n(C)c(=O)n7C6CCC(=O)NC6=O)CC5)CC3)C4)co2)ccn1 (stereo partly shown) [Example 88]	–	5.4	–	89	–

— patent EP4725946A1, “IRAK4 DEGRADATION AGENT AND USE THEREOF” (Guangzhou Unirise Pharmaceutical Co., Ltd., priority 2023, dated 2024)
